Read-outs that look alike come from different tables or passages of the source.
Columns and labels:
thrombin = thrombin (Bos taurus (Bovine), UniProt P00735); experiment: Enzyme assay, inhibition constant for thrombin (chromogenic substrate, Dixon method); type: biochemical, Rind; details: substrate CH3SO2-D-Cha-Gly-Arg-pNA, mean of at least two measurements
Procedure: (§1) Reactions were started by addition of 50 μl of enzyme solution.
(§2) The Ki values are the mean of at least two measurements. Enzymes and substrates used are set out in Table 1 below: […]

Factor Xa (human) = Factor Xa (human) (Homo sapiens (Human), UniProt P00742); experiment: Enzyme assay, inhibition constant for factor Xa (chromogenic substrate, Dixon method); type: biochemical; details: read-out: Ki FXa
Procedure: as §1, §2

plasmin [1] = target: T1, plasmin (Homo sapiens (Human), UniProt P00747); experiment: Enzyme assay, inhibition constant for human plasmin (chromogenic substrate, Dixon method); type: biochemical; details: 25° C., Tris HCl buffer pH 8.0, substrate Tos-Gly-Pro-Lys-pNA, mean of at least two measurements; read-out: Ki h Plasmin
Procedure: as §1, §2
Target sequence in this assay (P00747 581-810): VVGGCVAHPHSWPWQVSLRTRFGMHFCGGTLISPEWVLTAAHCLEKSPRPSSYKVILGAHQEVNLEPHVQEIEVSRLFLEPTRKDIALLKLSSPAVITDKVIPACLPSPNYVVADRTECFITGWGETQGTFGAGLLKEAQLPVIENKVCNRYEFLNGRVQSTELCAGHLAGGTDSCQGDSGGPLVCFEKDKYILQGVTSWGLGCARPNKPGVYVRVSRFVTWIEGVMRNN
Target sequence in this assay (P00747 97-580 partner): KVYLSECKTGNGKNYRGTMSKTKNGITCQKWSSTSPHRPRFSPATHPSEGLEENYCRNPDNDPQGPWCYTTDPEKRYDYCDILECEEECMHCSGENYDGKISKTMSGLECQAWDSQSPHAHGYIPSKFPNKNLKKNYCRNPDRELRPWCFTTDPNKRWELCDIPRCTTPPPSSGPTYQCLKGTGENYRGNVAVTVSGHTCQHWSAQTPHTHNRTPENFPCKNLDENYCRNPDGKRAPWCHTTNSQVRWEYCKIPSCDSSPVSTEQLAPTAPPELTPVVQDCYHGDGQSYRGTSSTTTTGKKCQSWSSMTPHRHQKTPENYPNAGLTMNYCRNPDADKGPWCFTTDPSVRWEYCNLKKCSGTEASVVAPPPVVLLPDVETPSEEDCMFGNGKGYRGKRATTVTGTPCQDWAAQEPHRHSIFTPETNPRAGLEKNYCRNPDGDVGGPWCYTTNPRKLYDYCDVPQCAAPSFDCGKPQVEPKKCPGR

plasma kallikrein = plasma kallikrein (Homo sapiens (Human), UniProt P03952); experiment: Enzyme assay, inhibition constant for human plasma kallikrein (chromogenic substrate, Dixon method); type: biochemical; details: 25° C., Tris HCl buffer pH 8.0, substrate H-D-Pro-Phe-Arg-pNA, mean of at least two measurements; read-out: Ki PK
Procedure: as §1, §2

plasmin [2] = target: T1, plasmin; details: background, literature; read-out: Ki / inhibition constant for plasmin; cited from earlier work
Target sequence in this assay (P00747 581-810, species assumed): as the sequence (P00747 581-810) above
Target sequence in this assay (P00747 97-580 partner, species assumed): as the sequence (P00747 97-580 partner) above

[3] = cited from earlier work
trypsin = details: background; cited from earlier work
[4] = substrate CH3OCO-D-Cha-Gly-Arg-pNA, mean of at least two measurements

Sequence of Factor Xa (human) (P00742 235-488): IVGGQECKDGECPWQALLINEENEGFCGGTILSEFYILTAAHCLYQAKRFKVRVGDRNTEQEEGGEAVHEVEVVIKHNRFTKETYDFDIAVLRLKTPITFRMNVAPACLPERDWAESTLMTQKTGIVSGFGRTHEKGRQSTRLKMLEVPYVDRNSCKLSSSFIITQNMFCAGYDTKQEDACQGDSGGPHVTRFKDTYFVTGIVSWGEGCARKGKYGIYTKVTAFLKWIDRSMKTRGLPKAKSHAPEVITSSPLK
Sequence of Factor Xa (human) (P00742 41-179 partner): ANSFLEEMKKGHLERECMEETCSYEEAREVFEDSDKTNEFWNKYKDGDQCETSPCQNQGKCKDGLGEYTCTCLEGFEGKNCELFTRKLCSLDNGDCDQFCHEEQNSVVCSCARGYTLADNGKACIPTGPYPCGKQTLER
Sequence of plasma kallikrein (P03952 391-638): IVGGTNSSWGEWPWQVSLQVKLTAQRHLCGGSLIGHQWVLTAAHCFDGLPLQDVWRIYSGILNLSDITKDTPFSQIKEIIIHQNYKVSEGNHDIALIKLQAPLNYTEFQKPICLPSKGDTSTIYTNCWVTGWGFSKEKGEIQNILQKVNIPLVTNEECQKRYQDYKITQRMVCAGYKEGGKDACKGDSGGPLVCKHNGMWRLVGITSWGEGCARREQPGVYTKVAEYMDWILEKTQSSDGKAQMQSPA
Sequence of plasma kallikrein (P03952 20-390 partner): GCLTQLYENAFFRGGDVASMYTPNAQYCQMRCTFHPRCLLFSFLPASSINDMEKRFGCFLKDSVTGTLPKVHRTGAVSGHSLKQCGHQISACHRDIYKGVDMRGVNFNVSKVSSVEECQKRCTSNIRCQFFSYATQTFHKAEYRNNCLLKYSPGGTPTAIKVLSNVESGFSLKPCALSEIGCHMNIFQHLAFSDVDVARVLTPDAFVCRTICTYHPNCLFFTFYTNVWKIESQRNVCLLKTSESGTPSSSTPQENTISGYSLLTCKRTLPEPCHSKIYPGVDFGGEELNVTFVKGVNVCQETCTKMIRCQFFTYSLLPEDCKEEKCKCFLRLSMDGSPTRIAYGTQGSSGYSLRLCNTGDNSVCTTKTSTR

Row | Compound | Ki (thrombin) [nM] | Ki (Factor Xa (human); [4]) [nM] | Ki (plasmin [1]) [nM] | Ki (plasma kallikrein) [nM] | Ki (Factor Xa (human)) [nM] | Ki (plasmin [2]) [nM] | risk of anaphylactic shock ([3]; first administration) [%] | risk of anaphylactic shock ([3]; repeated administration within 200 days) | Ki (trypsin) [nM]
1 | N=C(N)c1ccc(CNC(=O)[C@@H]2Cc3cn(nn3)Cc3cccc(c3)Cn3cc(nn3)C[C@@H](NS(=O)(=O)Cc3ccccc3)C(=O)N2)cc1 [Inhibitor 1] | 4300 | 206 | 0.77 | 2.4 |  |  |  |  | 
2 | N=C(N)c1ccc(CNC(=O)[C@@H]2Cc3cn(nn3)Cc3cccc(n3)Cn3cc(nn3)C[C@@H](NS(=O)(=O)Cc3ccccc3)C(=O)N2)cc1 [Inhibitor 2] | 4560 | 1860 | 2.2 | 10.1 |  |  |  |  | 
3 | N=C(N)c1ccc(CNC(=O)[C@@H]2Cc3ccc(cc3)CNC(=O)Cc3cccc(c3)CC(=O)NCc3ccc(cc3)C[C@@H](NS(=O)(=O)Cc3ccccc3)C(=O)N2)cc1 [Inhibitor 3] | 3000 | 5700 |  | 550 |  |  |  |  | 
4 | N=C(N)c1ccc(CNC(=O)[C@@H]2Cc3ccc(cc3)CNC(=O)Cc3ccc(cc3)CC(=O)NCc3ccc(cc3)C[C@@H](NS(=O)(=O)Cc3ccccc3)C(=O)N2)cc1 [Inhibitor 4] | 6520 | 9370 |  | 868 |  |  |  |  | 
5 | N=C(N)c1ccc(CNC(=O)[C@@H]2Cc3cccc(c3)CNC(=O)Cc3cccc(c3)CC(=O)NCc3cccc(c3)C[C@@H](NS(=O)(=O)Cc3ccccc3)C(=O)N2)cc1 [Inhibitor 5] | 26.8 | 42.1 |  | 17.4 |  |  |  |  | 
6 | N=C(N)c1ccc(CNC(=O)[C@@H]2Cc3cccc(c3)CNC(=O)Cc3ccc(cc3)CC(=O)NCc3cccc(c3)C[C@@H](NS(=O)(=O)Cc3ccccc3)C(=O)N2)cc1 [Inhibitor 6] | 45.4 |  |  | 136 | 152 |  |  |  | 
7 | N=C(N)c1ccc(CNC(=O)[C@@H]2Cc3cccc(c3)CNC(=O)Cc3ccccc3CC(=O)NCc3cccc(c3)C[C@@H](NS(=O)(=O)Cc3ccccc3)C(=O)N2)cc1 [Inhibitor 7] | 575 | 103 |  | 8.9 |  |  |  |  | 
8 | N=C(N)c1ccc(CNC(=O)[C@@H]2CCN2C(=O)[C@H](NCC(=O)O)C2CCCCC2)cc1 [melagatran] |  |  |  |  |  | 700 |  |  | 
9 | aprotinin |  |  |  |  |  |  | < 0.1 | 4-5% | 0.1

Further lines, with some results ahead:

Row | Ki (thrombin) [nM] | Ki (Factor Xa (human); [4]) [nM] | Ki (plasmin [1]) [nM] | Ki (plasma kallikrein) [nM] | Compound | Ki (Factor Xa (human)) [nM] | Ki (plasmin [2]) [nM] | risk of anaphylactic shock ([3]; first administration) [%] | risk of anaphylactic shock ([3]; repeated administration within 200 days) | Ki (trypsin) [nM]
10 | 9.1 | 26.3 |  | 31.6 | N=C(N)c1ccc(CNC(=O)[C@@H]2Cc3cccc(c3)CNC(=O)CN3CCN(CC3)CC(=O)NCc3cccc(c3)C[C@@H](NS(=O)(=O)Cc3ccccc3)C(=O)N2)cc1 [Inhibitor 8] |  |  |  |  | 
11 | 2120 | 3470 |  | 493 | N=C(N)c1ccc(CNC(=O)[C@@H]2Cc3ccc(cc3)CNC(=O)CN3CCN(CC3)CC(=O)NCc3ccc(cc3)C[C@@H](NS(=O)(=O)Cc3ccccc3)C(=O)N2)cc1 [Inhibitor 9] |  |  |  |  | 
12 | 510 | 2010 | 1.9 | 34.2 | N=C(N)c1ccc(CNC(=O)[C@@H]2Cc3ccc(cc3)OCCCCOc3ccc(cc3)C[C@@H](NS(=O)(=O)Cc3ccccc3)C(=O)N2)cc1 [Inhibitor 11] |  |  |  |  | 
13 | 187 | 376 | 38 | 18 | N=C(N)c1ccc(CNC(=O)[C@@H]2CCCCNC(=O)c3cccc(c3)C(=O)NCCCC[C@@H](NS(=O)(=O)Cc3ccccc3)C(=O)N2)cc1 [Inhibitor 12] |  |  |  |  | 
14 | 2020 | 3430 |  | 25 | N=C(N)c1ccc(CNC(=O)[C@@H]2CCC(=O)NCc3cccc(c3)CNC(=O)CC[C@@H](NS(=O)(=O)Cc3ccccc3)C(=O)N2)cc1 [Inhibitor 13] |  |  |  |  | 
15 | 219 | 600 | 5.4 | 12 | N=C(N)c1ccc(CNC(=O)[C@@H]2Cc3cn(nn3)Cc3ccc(cc3)Cn3cc(nn3)C[C@@H](NS(=O)(=O)Cc3ccccc3)C(=O)N2)cc1 [Inhibitor 14] |  |  |  |  | 
16 | 8400 | > 10000 | 0.68 | 320 | N=C(N)c1ccc(CNC(=O)[C@@H]2Cc3ccc(cc3)NC(=O)CN3CCN(CC3)CC(=O)Nc3ccc(cc3)C[C@@H](NS(=O)(=O)Cc3ccccc3)C(=O)N2)cc1 [Inhibitor 15] |  |  |  |  | 

From patent US8921319B2, “Serine protease inhibitors” (The Medicines Company (Leipzig) GmbH, priority 2010, dated 2014)
